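Assay format: 96-well plates, 48-hour exposure. GI50 is the concentration that inhibits growth by half.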 The source made the active and inactive calls. Cut-off read from the data, not from the text of the source: active = GI50 up to about 1.1 µM and inactive = higher.
Experiments:
Experiment in all cases: DTP human tumour cell line panel, 48 h
RPMI-8226 = test system: RPMI-8226
SK-MEL-2 = test system: SK-MEL-2
NCI-H522 = test system: NCI-H522
Malme-3M = test system: Malme-3M
OVCAR-3 = test system: OVCAR-3
CAKI-1 = test system: CAKI-1
K562 = test system: K562
UACC-62 = test system: UACC-62
SK-OV-3 = test system: SK-OV-3
SK-MEL-5 = test system: SK-MEL-5
MDA-MB-231 = test system: MDA-MB-231
UACC-257 = test system: UACC-257
SF-268 = test system: SF-268
SNB-75 = test system: SNB-75
M14 = test system: M14
ACHN = test system: ACHN
SF-295 = test system: SF-295
T47D = test system: T47D
SN12C = test system: SN12C
HOP-92 = test system: HOP-92

Measured: GI50

FC(F)(F)c1ccc2c(c1)nc(Cc1ccccc1)n2C[C@@H]1CCCN2CCCCC12 (stereo not given in full)
inactive: RPMI-8226 17.1 µM | SK-MEL-2 16.3 µM | NCI-H522 14 µM | Malme-3M 15.2 µM | OVCAR-3 14.8 µM | CAKI-1 15.1 µM | K562 18.9 µM | UACC-62 16.7 µM | SK-OV-3 17.5 µM | SK-MEL-5 14.4 µM | MDA-MB-231 14.2 µM | UACC-257 14.7 µM | SF-268 14.8 µM | SNB-75 15.1 µM | M14 10.6 µM | ACHN 13.5 µM | SF-295 15.8 µM | T47D 14.4 µM | SN12C 13.1 µM | HOP-92 8.85 µM

COc1ccc(/N=c2\ssc(C(=S)Nc3ccc(OC)cc3)c2S)cc1
inactive: RPMI-8226 > 100 µM | SK-MEL-2 > 100 µM | NCI-H522 > 100 µM | Malme-3M > 100 µM | OVCAR-3 > 100 µM | CAKI-1 > 100 µM | K562 37.7 µM | UACC-62 > 100 µM | SK-OV-3 > 100 µM | SK-MEL-5 > 100 µM | MDA-MB-231 > 100 µM | UACC-257 > 100 µM | SF-268 > 100 µM | SNB-75 > 100 µM | M14 71 µM | ACHN > 100 µM | SF-295 > 100 µM | T47D > 100 µM | SN12C > 100 µM | HOP-92 > 100 µM

Cc1c(Cc2ccccc2)c(Cc2ccccc2)c(C)[s+]1[O-]
inactive: RPMI-8226 19.7 µM | SK-MEL-2 16.9 µM | NCI-H522 23.7 µM | Malme-3M 33.2 µM | OVCAR-3 30.8 µM | CAKI-1 22.7 µM | K562 21.2 µM | UACC-62 14.5 µM | SK-OV-3 40.3 µM | SK-MEL-5 15.6 µM | MDA-MB-231 19.2 µM | UACC-257 19.7 µM | SF-268 51.1 µM | SNB-75 20 µM | M14 21.2 µM | ACHN 32.7 µM | SF-295 30.1 µM | T47D 12.9 µM | SN12C 26.5 µM | HOP-92 27.4 µM

C/C=C(\C)C(=O)OC1/C=C(\C)CC/C=C(\C)CC2OC(=O)C(C)(OC(C)=O)C12 (stereo not given)
inactive: RPMI-8226 > 100 µM | SK-MEL-2 > 100 µM | NCI-H522 > 100 µM | Malme-3M > 100 µM | OVCAR-3 > 100 µM | CAKI-1 > 100 µM | K562 > 100 µM | UACC-62 > 100 µM | SK-OV-3 > 100 µM | SK-MEL-5 > 100 µM | MDA-MB-231 > 100 µM | UACC-257 > 100 µM | SF-268 > 100 µM | SNB-75 > 100 µM | M14 > 100 µM | ACHN > 100 µM | SF-295 > 100 µM | T47D > 100 µM | SN12C > 100 µM | HOP-92 > 100 µM

C[C@]12C=CC(=O)C=C1CC[C@@H]1[C@@H]2CC[C@]2(C)OC(=O)CC[C@@H]12 [TESTOLACTONE]
inactive: RPMI-8226 450 µM | SK-MEL-2 > 478 µM | NCI-H522 320 µM | Malme-3M 480 µM | OVCAR-3 479 µM | CAKI-1 372 µM | K562 449 µM | UACC-62 323 µM | SK-OV-3 > 479 µM | SK-MEL-5 429 µM | MDA-MB-231 327 µM | UACC-257 389 µM | SF-268 > 489 µM | SNB-75 292 µM | M14 > 500 µM | ACHN 453 µM | SF-295 > 500 µM | T47D > 337 µM | SN12C 495 µM | HOP-92 402 µM

From ChEMBL document CHEMBL1201862, “PubChem BioAssay data set” (2004)
